The record followed here is publication PMC5830761 (Royal Society Open Science, 2018).

One assay deals with T1, human A2A receptors (Homo sapiens, UniProt P29274).
T1 construct: expressed in transfected cells
Nature of the assay: Radioligand binding to human A2A AR ([3H]CGS21680). Conditions: cells expressing human A2AAR; radioligand [3H]CGS21680; mean ± SEM; read-out: Ki hA2AAR. The method, then: (§1) CHO (Chinese hamster ovary) cells expressing the recombinant human ARs^2 were cultured in DMEM supplemented with 10% fetal bovine serum, 100 units/mL penicillin, 100 µg/mL streptomycin, 2 µmol/mL glutamine, and 800 µg/mL geneticin. Cells were harvested by trypsinization. After homogenization and suspension, cells were centrifuged at 500 g for 10 min, and the pellet was resuspended in 50 mM Tris-HCl buffer (pH 8.0) containing 10 mM MgCl2, 1 mM EDTA, and 0.1 mg/mL CHAPS. The suspension was homogenized with an electric homogenizer for 10 s and was then recentrifuged at 20000 g for 20 min at 4 °C. […] The protein concentration was measured using the Bradford assay.^3
(§2) Human A1 and A2A receptors: For binding to human A1 receptors, [^3H]CCPA (1 nM) was incubated with membranes (40 µg/tube) from CHO cells stably expressing human A1 receptors at 25 °C for 60 min in 50 mM Tris-HCl buffer (pH 7.4; MgCl2, 10 mM) in a total assay volume of 200 µL. Nonspecific binding was determined using 10 µM of CPA. For human A2A receptor binding, membranes (20 µg/tube) from HEK-293 cells stably expressing human A2A receptors were incubated with 15 nM [^3H]CGS21680 at 25 °C for 60 min in 200 µL of 50 mM Tris-HCl, pH 7.4, containing 10 mM MgCl2. NECA (10 µM) was used to define nonspecific binding. Reaction was terminated by filtration with GF/B filters.

A further assay concerns the target T2, human A3 receptor (Homo sapiens, UniProt P0DMS8).
T2 construct: expressed in transfected cells; host or cells: CHO cells, membranes
T2 sequence (P0DMS8 1-318): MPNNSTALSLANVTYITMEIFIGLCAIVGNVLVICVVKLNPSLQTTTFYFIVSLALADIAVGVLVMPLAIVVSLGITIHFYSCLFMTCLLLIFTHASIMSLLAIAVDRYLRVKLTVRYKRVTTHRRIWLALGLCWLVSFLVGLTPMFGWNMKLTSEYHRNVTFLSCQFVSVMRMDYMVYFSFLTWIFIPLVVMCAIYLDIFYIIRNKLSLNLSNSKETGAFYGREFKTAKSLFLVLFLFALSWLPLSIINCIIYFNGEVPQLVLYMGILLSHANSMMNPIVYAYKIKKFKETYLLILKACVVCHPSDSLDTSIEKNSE
Nature of the assay: Competitive radioligand binding to human A3 AR ([125I]I-AB-MECA), CHO cell membranes. As to conditions: CHO cells expressing human A3AR; radioligand [125I]I-AB-MECA; mean ± SEM; read-out: Ki hA3AR. Here is the method:
CHO (Chinese hamster ovary) cells expressing the recombinant human ARs^2 were cultured in DMEM supplemented with 10% fetal bovine serum, 100 units/mL penicillin, 100 µg/mL streptomycin, 2 µmol/mL glutamine, and 800 µg/mL geneticin. Cells were harvested by trypsinization. After homogenization and suspension, cells were centrifuged at 500 g for 10 min, and the pellet was resuspended in 50 mM Tris-HCl buffer (pH 8.0) containing 10 mM MgCl2, 1 mM EDTA, and 0.1 mg/mL CHAPS. […] The protein concentration was measured using the Bradford assay.^3
Human A3 receptor: For competitive binding assay, each tube contained 100 µL of membrane suspension (20 µg protein), 50 µL of [^125I]I-AB-MECA (0.5 nM), and 50 µL of increasing concentrations of the nucleoside derivative in Tris-HCl buffer (50 mM, pH 7.4) containing 10 mM MgCl2 and 1 mM EDTA. Nonspecific binding was determined using 10 µM of Cl-IB-MECA in the buffer. The mixtures were incubated at 25 °C for 60 min. Binding reactions were terminated by filtration through Whatman GF/B filters under reduced pressure using a MT-24 cell harvester (Brandell, Gaithersburgh, MD). Filters were washed three times with 9 mL of ice-cold buffer. Radioactivity was determined in a Beckman 5500B γ-counter.

For a further assay, the target named is T3, human A1 receptors (Homo sapiens, UniProt P30542).
T3 sequence (P30542 1-326): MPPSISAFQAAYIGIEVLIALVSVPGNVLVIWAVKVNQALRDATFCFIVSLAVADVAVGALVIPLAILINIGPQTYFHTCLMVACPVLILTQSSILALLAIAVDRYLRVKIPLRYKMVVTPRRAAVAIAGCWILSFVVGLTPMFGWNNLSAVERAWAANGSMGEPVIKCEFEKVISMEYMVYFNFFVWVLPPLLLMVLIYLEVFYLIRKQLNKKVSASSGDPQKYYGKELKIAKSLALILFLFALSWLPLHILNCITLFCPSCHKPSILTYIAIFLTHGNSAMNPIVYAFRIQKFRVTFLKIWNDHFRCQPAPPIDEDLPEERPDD
Nature of the assay: Radioligand binding to human A1 AR ([3H]CCPA), CHO cell membranes. Conditions: mean ± SEM; for Ki: CHO cells expressing human A1AR, radioligand [3H]CCPA, read-out: Ki hA1AR. The method, then: as §1, §2

What is called Ki is a dissociation constant, usually derived from enzyme kinetics or from competition with a known ligand. As usually defined, the inhibition is the drop in the measured response relative to a control, in per cent.

T1 sequence (P29274 whole entry): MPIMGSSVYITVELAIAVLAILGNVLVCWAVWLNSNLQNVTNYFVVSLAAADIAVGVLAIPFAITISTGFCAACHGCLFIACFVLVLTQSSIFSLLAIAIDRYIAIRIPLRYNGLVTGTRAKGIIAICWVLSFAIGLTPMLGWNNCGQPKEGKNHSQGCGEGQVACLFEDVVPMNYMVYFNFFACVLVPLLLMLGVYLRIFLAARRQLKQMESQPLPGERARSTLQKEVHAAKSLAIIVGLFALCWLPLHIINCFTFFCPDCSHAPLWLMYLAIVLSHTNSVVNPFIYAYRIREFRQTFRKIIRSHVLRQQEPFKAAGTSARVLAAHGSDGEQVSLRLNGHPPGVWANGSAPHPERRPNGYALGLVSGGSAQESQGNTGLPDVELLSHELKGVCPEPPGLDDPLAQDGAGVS

`Cn1cc(CCOc2nc(N)c3ncn([C@@H]4O[C@H](CO)[C@@H](O)[C@H]4O)c3n2)c2ccc(Br)cc21` [compound 9]: the Ki turned out to be 2770 ± 500 nM on human A2A receptors and 679 ± 149 nM on human A3 receptor. The inhibition at 10 µM on human A1 receptors (at 10 µM, weak binding, corresponding to IC50 ≥ 10 µM, [3H]CCPA, read-out: % inhibition at 10 µM hA1AR) turned out to be 47%.
Regarding `Nc1nc(OCCc2cn(Cc3ccccc3)c3cc(Br)ccc23)nc2c1ncn2[C@@H]1O[C@H](CO)[C@@H](O)[C@H]1O` [compound 10], the inhibitory constant (Ki) at human A2A receptors came to 380 ± 81 nM; at human A3 receptor it was 532 ± 144 nM; on human A1 receptors, 217 ± 57 nM.
Turning to `Cn1cc(CCCOc2nc(N)c3ncn([C@@H]4O[C@H](CO)[C@@H](O)[C@H]4O)c3n2)c2ccc(Br)cc21` [compound 13, 2-(6"-Bromo-1"-Methyl-3"-indolylpropoxy)adenosine], the Ki on human A2A receptors came out at 262 ± 192 nM; on human A3 receptor, 177 ± 43 nM; on human A1 receptors it was 230 ± 26 nM.
The matching figures for `Nc1nc(OCCCc2cn(Cc3ccccc3)c3cc(Br)ccc23)nc2c1ncn2[C@@H]1O[C@H](CO)[C@@H](O)[C@H]1O` [compound 14, 2-(6"-Bromo-1"-Benzyl-3"-indolylpropoxy)adenosine]: 371 ± 79 nM, 491 ± 143 nM and 152 ± 49 nM.
